Assays:
[1] = Water uptake experiments (Dynamic Vapor Sorption); type: physicochemical; conditions: equilibrated under 80% relative humidity (RH) air at 25° C.
Experimental: A dry sample of the crystalline form having a melting point or a decomposition point of about 278° C. to about 285° C. (i.e., Form II) typically gains less than about 1% of its own weight when equilibrated under 80% relative humidity (RH) air at 25° C. […] For the present purposes, the term “essentially 0% RH” means less than about 1% RH. The term “equilibrated” means that the change in weight of a sample over time at a given relative humidity is less than 0.0003% ((dm/dt)/m0×100, where m is mass in mg, m0 is initial mass, and t is time in minutes).
Water sorption experiments are performed on a Dynamic Vapor Sorption (DVS) apparatus (DVS-1000 manufactured by Surface Measurements Systems, Inc.). Experiments are performed at 25° C. by initially drying the material of interest (about 10 mg sample) from 30% relative humidity (RH) (ambient room condition) to about 9% RH in a stepwise fashion (10% RH step) by purging with dry nitrogen until no further weight change was observed. The samples are then exposed to a stepwise (10% RH steps) increase in RH from about 0 to about 90% RH. Each successive step is initiated when the change in weight over time at the relative humidity was less than 0.0003% ((dm/dt)/m0×100, where m is mass in mg, m0 is initial mass, and t is time in minutes). […] The data are collected on a computer and analyzed using SMS' proprietary MS-Excel macro interface software.

Male beagle dogs = assay: Serum triglyceride in beagle dogs; type: in vivo, dog; conditions: pravastatin 10 mg/kg/day dosed Weeks 1-11; Week 10; mean ± SEM, n=6
Experimental: Following this initial four week dose-ranging study, dogs from the two groups receiving 10 mg/kg/day pravastatin (a.m. and p.m. dosing groups) were randomized into two new treatment groups based on serum total cholesterol levels to initiate the combination treatment study. One group received an empty capsule (a.m. dosing) and 10 mg/kg/day pravastatin (p.m. dosing) and the other received 4.0 mg/kg/day compound A-5 (a.m. dosing) and 10 mg/kg/day pravastatin (p.m. dosing). A third group that had received empty capsules (vehicle) in the dose-ranging study was used for compound A-5 monotherapy and was administered 4.0 mg/kg/day compound A-5 (a.m. dosing) and an empty capsule (p.m. dosing). […]
Blood was collected from the cephalic vein of each dog into serum separator tubes. […] Commercial calibrator and quality control materials were analyzed with each run to verify assay accuracy and precision. […]
Serum lipid measurements were obtained as described in Example 3 above except that blood was collected from either the cephalic or jugular vein of each dog into serum separator tubes and the blood was centrifuged at 2000 rpm for 20 minutes. Table X-4A below reports the data measured on the effect of the compound A-5/pravastatin combination therapy on serum total cholesterol. […]

In the case of CCCCC1(CCCC)CS(=O)(=O)c2ccc(N(C)C)cc2[C@@H](c2ccc(OCc3ccc(C[N+]45CCN(CC4)CC5)cc3)cc2)[C@H]1O.[Cl-] [Form II, (4R,5R)-1-((4-(4-(3,3-dibutyl-7-(dimethylamino)-2,3,4,5-tetrahydro-4-hydroxy-1,1-dioxido-1-benzithiepin-5-yl)phenoxy)methyl)phenyl)methyl-4-aza-1-azoniabicyclo[2.2.2]octane chloride], the “weight gain of a dry sample (of its own weight)” value [1] is reported as “less than 1%”.
In the case of CC[C@H](C)C(=O)O[C@H]1C[C@H](O)C=C2C=C[C@H](C)[C@H](CC[C@@H](O)C[C@@H](O)CC(=O)O)[C@H]21 [pravastatin, Pravastatin], the “TOTAL SERUM TRIGLYCERIDE” value (Male beagle dogs) is reported as 43 ± 5 mg/dL.

— patent US20030232834A1, “Combination therapy for the prophylaxis and treatment of hyperlipidemic conditions and disorders” (priority 2002, published 2003)
